Assay results reported in PMC11637438, “Chickpea NCR13 disulfide cross-linking variants exhibit profound differences in antifungal activity and modes of action” (PLOS Pathogens, 2024).
Where two headings read alike, the source gives them in different places. Bridge positions count the residues as written; N and C are the ends. Ends that are not written are not given here. Peptide text beside a SMILES is read from it.

Key:
B. cinerea [1] = type: cell-based, Botrytis cinerea; conditions: for fold reduction in antifungal activity relative to NCR13_CS: reduced peptides
Protocol: (§1) B. cinerea strain T4 was cultured in V8 medium for 3 weeks at 25°C. Fungal spores were collected by flooding the fungal growth plates with water and scraped using a sterile spreader. The spore suspension was filtered through two layers of Miracloth, followed by centrifugation at 12,000 g for 2 minutes (min) and subsequently washed twice with sterile water. Lastly, fungal spores were resuspended in Synthetic Fungal Media (SFM). The spore suspension was adjusted to the desired spore density of about 10^5 spores/mL using a hemocytometer. Fusarium virguliforme (F. virguliforme) was grown and maintained regularly in potato dextrose agar (PDA) (Difco Laboratories) medium. Two weeks old F. virguliforme plates were used to collect spores as described above for B. cinerea followed by centrifugation and washing steps. Spores were counted using a hemocytometer and adjusted to the final concentration of 10^5 spores/mL in 2X SFM media. Sclerotinia sclerotiorum obtained from the field of pennycress in Illinois was grown on PDA medium at room temperature.
The antifungal activity of NCR13 against fungal pathogens was determined using the resazurin cell viability assay, as described previously. Briefly, 45 μL of each peptide dilution (0, 0.09, 0.1875, 0.375, 0.75, 1.5, 3, and 6 μM) was added to each well of the microtiter plate containing 45 μL (~10^5 spores/mL) of spore suspension. Three biological replicates were used for each treatment and the experiments were repeated three times. Resazurin at 0.1% (w/v) was added to each well after incubation for 48 h. Images were taken at ~24 h. The Minimum Inhibitory Concentration (MIC) for each peptide denotes the lowest concentration at which the peptide halts the growth of fungus evident through a lack of color change from blue to […]. The in vitro antifungal activity of NCR13_PFVs against S. sclerotiorum was determined using a 24-well plate assay as previously described. Mycelial plugs (1 mm in diameter) cut from the growing edge of the two day-old actively growing colony were transferred from PDA media to a series of wells containing 250 μL of SFM.

Fusarium virguliforme = experiment: In vitro antifungal assay, resazurin cell viability (MIC); type: cell-based; conditions: resazurin assay in SFM, ~10^5 spores/mL
Protocol: as §1
(§2) The antifungal activity of NCR13 against fungal pathogens was determined using the resazurin cell viability assay, as described previously. […] The in vitro antifungal activity of NCR13_PFVs against S. sclerotiorum was determined using a 24-well plate assay as previously described. […]

B. cinerea [2] = type: in vivo, Botrytis cinerea on tomato (Solanum lycopersicum); conditions: 3 μM peptide sprayed on pre-inoculated four-week-old tomato plants; 5 leaves per plant, 4 plants
Protocol: To test the curative antifungal activity of peptides against B. cinerea, 4-week-old pepper and tomato plants were used. Plants were first sprayed with 1 mL of B. cinerea spores (about 5 × 10^4) suspended in SFM. After 8 h of B. cinerea challenge, 2 mL of NCR13_PFV1 or NCR13_PFV2 (3.0 and 1.5 μM) were sprayed per plant. Control plants were sprayed with 2 mL of water. All plants were placed in a high humid environment for 72 h. Plants were imaged at 72 h after infection in white light and high-resolution fluorescence images were taken using CropReporter (PhenoVation). The quantification of plant health was carried out using the calculated Fv/Fm (maximum quantum yield of photosystem II) images of CropReporter showing the efficiency of photosynthesis in false colors.
For the curative assay using pepper and tomato plants, pictures of whole plants and detached leaves were taken as described above. […] Four plants were used per treatment and for each plant the disease was assessed per leaf. Besides disease severity (DS), the inhibition of disease by treatment was also evaluated. […]

Sclerotinia sclerotiorum = experiment: In vitro antifungal assay, 24-well plate with mycelial plugs (MIC); type: cell-based; conditions: mycelial plugs in 250 μL SFM
Protocol: as §1, §2

[3] = B. cinerea, resazurin assay in SFM, ~10^5 spores/mL, resazurin added after 48 h, three biological replicates

In the case of CC[C@H](C)[C@H](NC(=O)[C@H](CS)NC(=O)[C@H](CCCCN)NC(=O)[C@@H]1CCCN1C(=O)[C@@H](NC(=O)[C@H](CCCCN)NC(=O)[C@@H]1CCCN1C(=O)[C@H](CCCCN)NC(=O)[C@H](CCCNC(=N)N)NC(=O)[C@H](CS)NC(=O)[C@H](C)NC(=O)[C@H](Cc1ccccc1)NC(=O)[C@H](CCCCN)NC(=O)[C@H](CCCCN)NC(=O)[C@H](CS)NC(=O)[C@H](C)NC(=O)[C@H](C)NC(=O)[C@H](C)NC(=O)[C@H](C)NC(=O)[C@H](C)NC(=O)[C@H](CS)NC(=O)[C@@H]1CCCN1C(=O)[C@H](CCCCN)NC(=O)[C@@H](N)[C@@H](C)O)C(C)C)C(=O)N[C@@H](CC(N)=O)C(=O)NCC(=O)N[C@@H](Cc1ccccc1)C(=O)N[C@@H](CS)C(=O)N[C@@H](CCCCN)C(=O)N[C@@H](CS)C(=O)N[C@H](C(=O)N[C@@H](CCCNC(=N)N)C(=O)O)C(C)C [NCR13_AlaV1] (H-TKPCAAAAACKKFACRKPKVPKCINGFCKCVR-OH; N-terminus and C-terminus assumed), the “Minimal Inhibitory Concentration (MIC)” value (B. cinerea [1]; 48 h) is reported as 6 µM and the “fold reduction in antifungal activity relative to NCR13_CS” value (B. cinerea [1]; B. cinerea) is reported as 2 fold.

CC[C@H](C)[C@H](NC(=O)[C@H](CS)NC(=O)[C@H](CCCCN)NC(=O)[C@@H]1CCCN1C(=O)[C@@H](NC(=O)[C@H](CCCCN)NC(=O)[C@@H]1CCCN1C(=O)[C@H](CCCCN)NC(=O)[C@H](CCCNC(=N)N)NC(=O)[C@H](CS)NC(=O)[C@H](C)NC(=O)[C@H](C)NC(=O)[C@H](C)NC(=O)[C@H](C)NC(=O)[C@H](CS)NC(=O)[C@H](CC(=O)O)NC(=O)[C@H](CCCCN)NC(=O)[C@H](CC(=O)O)NC(=O)[C@H](CO)NC(=O)[C@H](CCC(N)=O)NC(=O)[C@H](CS)NC(=O)[C@@H]1CCCN1C(=O)[C@H](CCCCN)NC(=O)[C@@H](N)[C@@H](C)O)C(C)C)C(=O)N[C@@H](CC(N)=O)C(=O)NCC(=O)N[C@@H](Cc1ccccc1)C(=O)N[C@@H](CS)C(=O)N[C@@H](CCCCN)C(=O)N[C@@H](CS)C(=O)N[C@H](C(=O)N[C@@H](CCCNC(=N)N)C(=O)O)C(C)C [NCR13_AlaV2] (H-TKPCQSDKDCAAAACRKPKVPKCINGFCKCVR-OH; N-terminus and C-terminus assumed) was tested, and the “Minimal Inhibitory Concentration (MIC)” value (B. cinerea [1]; 48 h) was over 12 µM.

CC[C@H](C)[C@@H]1NC(=O)[C@@H]2CSSC[C@H](NC(=O)[C@H](Cc3ccccc3)NC(=O)CNC(=O)[C@H](CC(N)=O)NC1=O)C(=O)N[C@@H](CCCCN)C(=O)N[C@H](C(=O)N[C@H](C(=O)N[C@@H](CCCNC(=N)N)C(=O)O)C(C)C)CSSC[C@H](NC(=O)[C@H](C)NC(=O)[C@H](Cc1ccccc1)NC(=O)[C@H](CCCCN)NC(=O)[C@H](CCCCN)NC(=O)[C@@H]1CSSC[C@H](NC(=O)[C@@H]3CCCN3C(=O)[C@H](CCCCN)NC(=O)[C@@H](NC(=O)[C@H](C)N)[C@@H](C)O)C(=O)N[C@@H](CCC(N)=O)C(=O)N[C@@H](CO)C(=O)N[C@@H](CC(=O)O)C(=O)N[C@@H](CCCCN)C(=O)N[C@@H](CC(=O)O)C(=O)N1)C(=O)N[C@@H](CCCNC(=N)N)C(=O)N[C@@H](CCCCN)C(=O)N1CCC[C@H]1C(=O)N[C@@H](CCCCN)C(=O)N[C@@H](C(C)C)C(=O)N1CCC[C@H]1C(=O)N[C@@H](CCCCN)C(=O)N2 [NCR13_PFV2] (H-ATKPCQSDKDCKKFACRKPKVPKCINGFCKCVR-OH; disulfide 5-11, 16-31, 24-29) was tested, and the “Minimal Inhibitory Concentration (MIC)” value (B. cinerea [1]; [3]) was 1.5 µM, the “Minimal Inhibitory Concentration (MIC)” value (Fusarium virguliforme) was 1.5 µM and the “inhibition of gray mold disease, tomato” value (B. cinerea [2]) was 40%. For the same molecule, the “Minimal Inhibitory Concentration (MIC)” value (Sclerotinia sclerotiorum) was 24 µM.

In the case of CC(C)[C@H](NC(=O)[C@H](CS)NC(=O)[C@H](CCCCN)NC(=O)[C@H](CS)NC(=O)[C@H](C)NC(=O)[C@H](C)NC(=O)[C@H](C)NC(=O)[C@H](C)NC(=O)[C@H](CS)NC(=O)[C@H](CCCCN)NC(=O)[C@@H]1CCCN1C(=O)[C@@H](NC(=O)[C@H](CCCCN)NC(=O)[C@@H]1CCCN1C(=O)[C@H](CCCCN)NC(=O)[C@H](CCCNC(=N)N)NC(=O)[C@H](CS)NC(=O)[C@H](C)NC(=O)[C@H](Cc1ccccc1)NC(=O)[C@H](CCCCN)NC(=O)[C@H](CCCCN)NC(=O)[C@H](CS)NC(=O)[C@H](CC(=O)O)NC(=O)[C@H](CCCCN)NC(=O)[C@H](CC(=O)O)NC(=O)[C@H](CO)NC(=O)[C@H](CCC(N)=O)NC(=O)[C@H](CS)NC(=O)[C@@H]1CCCN1C(=O)[C@H](CCCCN)NC(=O)[C@@H](N)[C@@H](C)O)C(C)C)C(=O)N[C@@H](CCCNC(=N)N)C(=O)O [NCR13_AlaV5] (H-TKPCQSDKDCKKFACRKPKVPKCAAAACKCVR-OH; N-terminus and C-terminus assumed), the “Minimal Inhibitory Concentration (MIC)” value (B. cinerea [1]; 48 h) is reported as 12 µM and the “fold reduction in antifungal activity relative to NCR13_CS” value (B. cinerea [1]; B. cinerea) is reported as 4 fold.

In the case of CC[C@H](C)[C@H](NC(=O)[C@H](CS)NC(=O)[C@H](CCCCN)NC(=O)[C@@H]1CCCN1C(=O)[C@@H](NC(=O)[C@H](CCCCN)NC(=O)[C@@H]1CCCN1C(=O)[C@H](CCCCN)NC(=O)[C@H](CCCNC(=N)N)NC(=O)[C@H](CS)NC(=O)[C@H](C)NC(=O)[C@H](Cc1ccccc1)NC(=O)[C@H](CCCCN)NC(=O)[C@H](CCCCN)NC(=O)[C@H](CS)NC(=O)[C@H](CC(=O)O)NC(=O)[C@H](CCCCN)NC(=O)[C@H](CC(=O)O)NC(=O)[C@H](CO)NC(=O)[C@H](CCC(N)=O)NC(=O)[C@H](CS)NC(=O)[C@@H]1CCCN1C(=O)[C@H](CCCCN)NC(=O)[C@@H](N)[C@@H](C)O)C(C)C)C(=O)N[C@@H](CC(N)=O)C(=O)NCC(=O)N[C@@H](Cc1ccccc1)C(=O)N[C@@H](CS)C(=O)N[C@@H](CCCCN)C(=O)N[C@@H](CS)C(=O)N[C@H](C(=O)N[C@@H](CCCNC(=N)N)C(=O)O)C(C)C [NCR13_CS] (H-TKPCQSDKDCKKFACRKPKVPKCINGFCKCVR-OH; N-terminus and C-terminus assumed), the “fold decrease in antifungal activity compared to NCR13_PFV1” value (B. cinerea [1]; B. cinerea) is reported as about 33 fold, the “fold decrease in antifungal activity compared to NCR13_PFV2” value (B. cinerea [1]; B. cinerea) is reported as 2 fold and the “Minimal Inhibitory Concentration (MIC)” value (B. cinerea [1]; [3]) is reported as 3 µM.

In the case of “TKPSQSDKDSKKFASRKPKVPKSINGFSKSVR [NSR13]”, the “Minimal Inhibitory Concentration (MIC)” value (B. cinerea [1]; 48 h) is reported as over 24 µM and the “Minimal Inhibitory Concentration (MIC)” value (B. cinerea [1]; [3]) is reported as “Inactive”.

In the case of CC[C@H](C)[C@H](NC(=O)[C@H](CS)NC(=O)[C@H](C)NC(=O)[C@H](C)NC(=O)[C@H](C)NC(=O)[C@H](CCCCN)NC(=O)[C@@H]1CCCN1C(=O)[C@H](CCCCN)NC(=O)[C@H](CCCNC(=N)N)NC(=O)[C@H](CS)NC(=O)[C@H](C)NC(=O)[C@H](Cc1ccccc1)NC(=O)[C@H](CCCCN)NC(=O)[C@H](CCCCN)NC(=O)[C@H](CS)NC(=O)[C@H](CC(=O)O)NC(=O)[C@H](CCCCN)NC(=O)[C@H](CC(=O)O)NC(=O)[C@H](CO)NC(=O)[C@H](CCC(N)=O)NC(=O)[C@H](CS)NC(=O)[C@@H]1CCCN1C(=O)[C@H](CCCCN)NC(=O)[C@@H](N)[C@@H](C)O)C(=O)N[C@@H](CC(N)=O)C(=O)NCC(=O)N[C@@H](Cc1ccccc1)C(=O)N[C@@H](CS)C(=O)N[C@@H](CCCCN)C(=O)N[C@@H](CS)C(=O)N[C@H](C(=O)N[C@@H](CCCNC(=N)N)C(=O)O)C(C)C [NCR13_AlaV4] (H-TKPCQSDKDCKKFACRKPKAAACINGFCKCVR-OH; N-terminus and C-terminus assumed), the “Minimal Inhibitory Concentration (MIC)” value (B. cinerea [1]; 48 h) is reported as over 12 µM.

With CC(C)[C@H](NC(=O)[C@H](CCCCN)NC(=O)[C@@H]1CCCN1C(=O)[C@H](CCCCN)NC(=O)[C@H](CCCNC(=N)N)NC(=O)[C@H](CS)NC(=O)[C@H](C)NC(=O)[C@H](Cc1ccccc1)NC(=O)[C@H](CCCCN)NC(=O)[C@@H](N)CCCCN)C(=O)N1CCC[C@H]1C(=O)N[C@@H](CCCCN)C(=O)N[C@@H](CS)C(=O)O [NCR13 active motif] (H-KKFACRKPKVPKC-OH; N-terminus and C-terminus assumed) the “Minimal Inhibitory Concentration (MIC)” value (B. cinerea [1]; [3]) was 3 µM.
